# “And” between values parts separate entries of the source, which are not always exact repeats. Equal entries are not always repeated.
# Tests used:
# [1] = system: CYP2C19; assay: CYP selective diagnostic inhibition studies in HLM, ticlopidine; format: in vitro ADME, human; settings: ticlopidine 10 µmol/L
# Procedure: (§1) Reactions were carried out in triplicate in 96 well plates. Each reaction was measured at 2 time points, that is at 0 and 30 minutes. […] Furafylline, KTZ, ticlopidine, and quinidine were used as diagnostic inhibitors for CYP 1A2, 3A4/5, 2C19 and 2D6, respectively. The reactions were initiated by addition of NADPH after a pre‐incubation of 5 minutes at 37°C. All reactions were terminated by the addition of 150 µL ice‐cold ACN. Internal standard (0.2 µmol/L DPZ) was added to ACN prior to termination of the assay. This was followed by centrifugation at 4500 g for 20 minutes. An aliquot (50 µL) supernatant was collected and 5 µL was injected and analyzed by liquid chromatography/tandem mass spectrometry (LC/MS/MS). The percent effect of each inhibitor was the estimated contribution of the inhibited CYP calculated using the relationship below: %contribution=amount remaining with inhibitor‐amount remaining without inhibitor/amount remaining without inhibitor×100.
# [2] = cited from earlier work
# [3] = Intrinsic clearance, substrate depletion approach; format: in vitro ADME, human; settings: human, human liver microsomes, pH 7.4; HLM, 1 µmol/L substrate
# Procedure: (§2) The generic conditions were previously described by Masimirembwa and co‐workers. ^24 , ^25 Each reaction mixture consisted of substrate incubated with appropriate enzyme, substrate, and NADPH in potassium phosphate buffer pH 7.4 in a final volume of 200 µL. The substrate was diluted to 40% ACN so that the percent organic component in the final solution was maintained at 1%. The reactions were quenched with 3 volumes of stop solution containing ACN and 0.8% formic acid at 0, 5, 10, 20, 30, 40, and 60 minutes. This was followed by centrifugation at 4500 g for 20 minutes. An aliquot (50 µL) supernatant was collected and diluted (1:1) in water prior to LC‐MS/MS analysis.
# (§3) Each reaction was monitored over 7 time points.
# (§4) The well‐stirred model was used to estimate the hepatic clearance (CLH) due to metabolism.
# [4] = system: HLM; assay: Intrinsic clearance, substrate depletion approach; format: in vitro ADME, human; settings: substrate depletion; for Predicted CLuH,int / Predicted CLH: HLM; for Predicted CLH: well‐stirred model
# Procedure: as §2, §3, §4
# [5] = target: T1, CYP2C19 (Homo sapiens, UniProt P33261); assay: in vitro; settings: recombinant CYP2C19, pH 7.4
# [6] = target: T2, CYP1A2 (Homo sapiens, UniProt P05177); assay: Enzyme kinetics of hydroxylated metabolites formation; format: in vitro ADME; design: purchased CYPEX CYP001; host or cells: Escherichia coli; settings: CYP1A2, formation of cis‐4‐OH‐PZQ
# T2 sequence (P05177 1-516): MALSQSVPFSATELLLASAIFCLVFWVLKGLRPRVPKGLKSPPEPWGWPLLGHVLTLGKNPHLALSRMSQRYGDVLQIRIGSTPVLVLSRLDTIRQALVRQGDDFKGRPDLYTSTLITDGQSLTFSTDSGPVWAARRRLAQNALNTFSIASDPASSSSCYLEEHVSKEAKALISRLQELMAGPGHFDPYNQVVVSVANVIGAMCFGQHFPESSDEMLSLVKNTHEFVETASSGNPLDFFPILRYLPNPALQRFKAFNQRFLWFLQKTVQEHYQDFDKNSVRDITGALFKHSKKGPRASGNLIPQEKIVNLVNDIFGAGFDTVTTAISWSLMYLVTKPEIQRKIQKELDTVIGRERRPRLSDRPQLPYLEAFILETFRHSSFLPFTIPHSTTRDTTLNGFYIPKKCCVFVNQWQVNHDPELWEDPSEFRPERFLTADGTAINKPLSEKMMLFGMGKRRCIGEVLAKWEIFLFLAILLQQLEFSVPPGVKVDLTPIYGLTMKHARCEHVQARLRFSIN
# Procedure: (§5) The reactions were carried out in duplicate at each time point. Incubation conditions used for the determination of K M and V max were optimized for linearity with respect to time and protein concentrations. […] Metabolites were analyzed by LC‐MS/MS as described below. The K M and V max values of each marker substrate were determined using nonlinear least squares regression analysis in GraFit software (version 3.0, Erithacus Software Limited) and SigmaPlot Enzyme Kinetics Module for Windows 7.0 (SPSS, Inc).
# as §4
# [7] = system: CYP2D6; assay: CYP selective diagnostic inhibition studies in HLM, quinidine; format: in vitro ADME, human; settings: quinidine 10 µmol/L
# Procedure: as §1
# [8] = target: T3, CYP2D6 (Homo sapiens, UniProt P10635); assay: Intrinsic clearance, substrate depletion approach; settings: rCYP2D6, substrate depletion
# [9] = target: T1, CYP2C19; assay: Intrinsic clearance, substrate depletion approach; settings: rCYP2C19, substrate depletion
# [10] = system: CYP3A4/5; assay: CYP selective diagnostic inhibition studies in HLM, ketoconazole; format: in vitro ADME, human; settings: ketoconazole 10 µmol/L
# Procedure: as §1
# [11] = system: HLM; assay: Enzyme kinetics of hydroxylated metabolites formation; format: in vitro ADME, human
# Procedure: as §5, with “Inc). […]” for “Inc).”
# [12] = target: T3, CYP2D6; assay: in vitro; settings: recombinant CYP2D6, pH 7.4
# [13] = target: T2, CYP1A2; assay: Intrinsic clearance, substrate depletion approach; settings: for Predicted CLH / Predicted CLuH,int: rCYP1A2, substrate depletion
# [14] = target: T1, CYP2C19; assay: Enzyme kinetics of hydroxylated metabolites formation; format: in vitro ADME; design: purchased CYPEX CYP008; host or cells: Escherichia coli; settings: CYP2C19, formation of cis‐4‐OH‐PZQ
# Procedure: as §5, §4
# T1 sequence (P33261 whole entry): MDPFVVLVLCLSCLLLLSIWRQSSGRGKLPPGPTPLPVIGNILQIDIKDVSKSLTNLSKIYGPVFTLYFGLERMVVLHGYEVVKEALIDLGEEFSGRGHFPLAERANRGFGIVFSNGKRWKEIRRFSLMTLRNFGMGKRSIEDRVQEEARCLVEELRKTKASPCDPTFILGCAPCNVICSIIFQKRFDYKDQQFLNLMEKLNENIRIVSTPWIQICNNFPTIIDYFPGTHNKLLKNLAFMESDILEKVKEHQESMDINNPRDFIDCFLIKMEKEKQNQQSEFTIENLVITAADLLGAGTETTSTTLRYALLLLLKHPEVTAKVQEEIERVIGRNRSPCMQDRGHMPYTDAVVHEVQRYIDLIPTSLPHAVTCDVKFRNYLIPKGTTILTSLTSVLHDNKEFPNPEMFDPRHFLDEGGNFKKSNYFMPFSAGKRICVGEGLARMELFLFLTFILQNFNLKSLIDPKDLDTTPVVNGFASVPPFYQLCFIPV
# T3 sequence (P10635 whole entry): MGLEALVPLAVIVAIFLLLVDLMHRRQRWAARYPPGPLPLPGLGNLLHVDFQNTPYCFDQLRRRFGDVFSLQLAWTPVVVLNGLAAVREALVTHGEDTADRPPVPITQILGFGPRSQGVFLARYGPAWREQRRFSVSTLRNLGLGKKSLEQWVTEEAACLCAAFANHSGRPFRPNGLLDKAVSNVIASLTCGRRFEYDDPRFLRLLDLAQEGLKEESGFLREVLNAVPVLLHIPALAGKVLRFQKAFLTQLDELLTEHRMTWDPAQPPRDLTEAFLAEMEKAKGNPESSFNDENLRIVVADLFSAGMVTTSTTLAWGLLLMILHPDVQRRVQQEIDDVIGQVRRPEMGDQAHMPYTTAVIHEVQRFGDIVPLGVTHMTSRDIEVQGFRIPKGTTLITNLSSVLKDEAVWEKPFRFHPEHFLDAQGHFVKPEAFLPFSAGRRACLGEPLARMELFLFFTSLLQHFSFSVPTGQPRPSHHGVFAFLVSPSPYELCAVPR
Contribution of CYP2C19 [1] [%],half-life at 1 µmol/L [3] [min],"Predicted CLuH,int [4] [mL/min/kg]",Predicted CLH [4] [mL/min/kg],half-life at 1 µmol/L [5] [min],"CLuH,int [6]",Contribution of CYP2D6 [7] [%],Predicted CLH [8] [mL/min/kg],"Predicted CLuH,int [8] [mL/min/kg]",Predicted CLH [9] [mL/min/kg],"Predicted CLuH,int [9] [mL/min/kg]",Contribution of CYP3A4/5 [10] [%],K M [SD] ([11]; formation of X‐OH‐PZQ),K M [SD] ([11]; formation of cis‐4‐OH‐PZQ),V max [SD] ([11]; formation of cis‐4‐OH‐PZQ),half-life at 1 µmol/L [12] [min],Predicted CLH [13] [mL/min/kg],"Predicted CLuH,int [13] [mL/min/kg]",Structure (SMILES),Fraction unbound in plasma (fu) [2],V max [SD] ([11]; formation of X‐OH‐PZQ),further results
64,11.5,172.0,13.06,3.6,7.55 mL/min/kg and 7.550 mL/min/kg,51,0.2132,0.860,3.904,19.73,33,29.30 [4.020] µmol/L,38.90 [5.469] µmol/L,0.7572 [0.0447] nmol/min/mg protein,34.7,5.071,27.80,"O=C(C1CCCCC1)N1CC(=O)N2CCc3ccccc3[C@@H]2C1 [R‐PZQ, R‐Praziquantel]",0.2,1.2 nmol/min/mg protein and 1.200 [0.06266] nmol/min/mg protein,"Clearance class, HLM‐mediated [4]: high; Clearance class, CYP1A2‐mediated ([13]; substrate depletion): high; Clearance by CYP1A2, R‐PZQ compared to S‐PZQ ([13]; substrate depletion, times faster): 2 times; CLuH,int [14]: 4.60 mL/min/kg and 4.600 mL/min/kg"
117,29.5,97.50,10.78,4.13,0.83 mL/min/kg and 0.8300 mL/min/kg,54,0.1712,0.660,5.600,30.71,131,61.00 [22.12] µmol/L,44.30 [12.06] µmol/L,0.2700 [0.02999] nmol/min/mg protein,45.3,2.877,13.07,"O=C(C1CCCCC1)N1CC(=O)N2CCc3ccccc3[C@H]2C1 [S‐PZQ, S‐Praziquantel]",0.2,6.3 nmol/min/mg protein and 6.300 [1.102] nmol/min/mg protein,"CLuH,int [14]: 2.44 mL/min/kg and 2.440 mL/min/kg"
